Reference: patent US20100183625A1, “Treatment of Mucositis with Kallikrein Inhibitors” (Dyax Corp., priority 2009, published 2010)
Positions of bridges follow the written chain, without caps; N, C: chain ends. No end group written: not given here.

Assays:
[1] = biological target: plasma kallikrein (NP_000883) (Homo sapiens, UniProt P03952); settings: cited from earlier work
pKal = pKal (Homo sapiens, UniProt P03952); settings: read-out: Ki,app; active site inhibitor of pKal; cited from earlier work
Chain of pKal (P03952 20-638): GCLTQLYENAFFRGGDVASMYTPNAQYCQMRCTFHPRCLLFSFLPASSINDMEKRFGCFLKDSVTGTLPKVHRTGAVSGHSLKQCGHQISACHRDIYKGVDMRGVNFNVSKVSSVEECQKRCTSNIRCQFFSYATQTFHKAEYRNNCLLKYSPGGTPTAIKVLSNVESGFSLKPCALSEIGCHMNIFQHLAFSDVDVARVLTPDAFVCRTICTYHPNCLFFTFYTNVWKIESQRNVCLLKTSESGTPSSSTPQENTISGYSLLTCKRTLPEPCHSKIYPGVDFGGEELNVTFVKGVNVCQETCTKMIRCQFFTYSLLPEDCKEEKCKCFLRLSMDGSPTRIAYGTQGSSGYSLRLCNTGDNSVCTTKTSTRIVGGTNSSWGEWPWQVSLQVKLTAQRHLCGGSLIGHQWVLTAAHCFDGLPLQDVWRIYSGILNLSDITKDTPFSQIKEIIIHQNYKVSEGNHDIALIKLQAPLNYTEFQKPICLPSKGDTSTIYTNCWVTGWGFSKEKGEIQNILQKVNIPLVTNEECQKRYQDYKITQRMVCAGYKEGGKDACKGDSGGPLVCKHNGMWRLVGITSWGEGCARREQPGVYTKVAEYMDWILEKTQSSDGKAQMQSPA

[2] = Lot 100808, phosphate buffered saline, pH 7.0, 5.6 mg/mL

Chain of plasma kallikrein (NP_000883) (P03952 20-638): as above

**Q.** For “EAMHSFCAFKADDGPCRAAHPRWFFNIFTRQCEEFIYGGCEGNQNRFESLEECKKMCTRD (disulfide 7-57, 16-40, 32-53) [DX-88]”, which Ki [1] is on record?
**A.** < 1000 pM

**Q.** What does the source list for “EAMHSFCAFKADDGPCRAAHPRWFFNIFTRQCEEFSYGGCGGNQNRFESLEECKKMCTRD (disulfide 7-57, 16-40, 32-53) [EPI-KAL2]”?
**A.** Ki (pKal): 100 pM; Stability [2]: Stable for 24 hours at 2-4 °C
